The results in this text go back to US20230303540A1 (Merck Sharp & Dohme LLC, priority 2020, published 2023).

This test has as its target GST-tagged truncated human mutant G2019S LRRK2 (Homo sapiens, UniProt Q5S007, G2019S). As to the kind of experiment: LRRK2 G2019S Km ATP LanthaScreen assay. The format is biochemical. The settings on record: 134 μM ATP (Km ATP), LRRKtide substrate, mean IC50 values; read-out: LRRK2 pIC50 (converted). The procedure, abridged: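 Compound preincubated 15 min at room temperature with enzyme in pH 8.5 Tris buffer (10 mM MgCl2). Then a 90 min reaction at ambient temperature with 134 μM (Km) ATP and fluorescein-LRRKtide. EDTA stop, Tb anti-phospho antibody TR-FRET; […]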
(In general: In TR-FRET formats the signal depends on donor and acceptor labels being close together.)
`O[C@H]1CCN(c2cc3nc(Nc4cnn(CC(F)F)c4Cl)ncc3cc2Cl)C1` [Ex-1.17, (3S)-1-(6-chloro-2-{[5-chloro-1-(2,2-difluoroethyl)-1H-pyrazol-4-yl]amino}quinazolin-7-yl)pyrrolidin-3-ol]: the IC50 was 9.26 nM.

On to `CC1(N2CCN(c3cc4nc(Nc5cnn(C6CC6)c5Cl)ncc4cc3Cl)CC2)COCC1O` (single isomer, unassigned) [Ex-1.45, (3S,4S or 3R,4R)-4-(4-{6-chloro-2-[(5-chloro-1-cyclopropyl-1H-pyrazol-4-yl)amino]quinazolin-7-yl}piperazin-1-yl)-4-methyloxolan-3-ol], for which the IC50 is 21.3 nM.

For `Cc1c(Nc2ncc3cc(Cl)c(N4CCC(C)(O)CC4)cc3n2)cnn1C(C)(C)C#N` [Ex-6.15, 2-(4-{[6-chloro-7-(4-hydroxy-4-methylpiperidin-1-yl)quinazolin-2-yl]amino}-5-methyl-1H-pyrazol-1-yl)-2-methylpropanenitrile], the IC50 was 3.57 nM.

Consider `CC1(O)CCN(c2cc3nc(Nc4cnn(C(C)(C)C#N)c4Cl)ncc3cc2Cl)CC1` [Ex-6.6, 2-(5-chloro-4-{[6-chloro-7-(4-hydroxy-4-methylpiperidin-1-yl)quinazolin-2-yl]amino}-1H-pyrazol-1-yl)-2-methylpropanenitrile], for which the IC50 is 4.02 nM.

Turning to `[2H]C([2H])([2H])n1nc(C(C)(C)n2nccn2)cc1Nc1ncc2cc(Cl)c(N3CCC(C)(O)CC3)cc2n1` [Ex-14.1, 1-(2-((3-(2-(2H-1,2,3-Triazol-2-yl)propan-2-yl)-1-(methyl-d3)-1H-pyrazol-5-yl)amino)-6-chloroquinazolin-7-yl)-4-methylpiperidin-4-ol], the IC50 is 4.11 nM.

Take `CCn1ncc(Nc2ncc3ccc(N4C(=O)C5CCC4C5)cc3n2)c1C` (stereo not drawn) [Ex-7.19, 2-{2-[(1-ethyl-5-methyl-1H-pyrazol-4-yl)amino]quinazolin-7-yl}-2-azabicyclo[2.2.1]heptan-3-one]: the IC50 is 2.53 nM.

Regarding `OC1COCC1N1CCN(c2cc3nc(Nc4cnn(C(F)F)c4)ncc3cc2Cl)CC1` (single isomer, unassigned) [Ex-6.47, (3S,4S) or (3R,4R) 4-(4-(6-chloro-2-((1-(difluoromethyl)-1H-pyrazol-4-yl)amino)quinazolin-7-yl)piperazin-1-yl)tetrahydrofuran-3-ol], the IC50 was 0.85 nM.

Consider `CC(C)(C)Cn1cc(Nc2ncc3cc(Cl)c(N4CCN(C5(C)COC5)CC4)cc3n2)cn1` [Ex-4.64, 6-chloro-N-[1-(2,2-dimethylpropyl)-1H-pyrazol-4-yl]-7-[4-(3-methyloxetan-3-yl)piperazin-1-yl]quinazolin-2-amine], for which the IC50 was 9.73 nM.

On to `Cc1c(Nc2ncc3cc(Cl)c(N4C[C@H]5CC[C@@H](C4)[C@@]5(C)O)cc3n2)cnn1C1CC1` [Ex-3.27, (8-syn)-3-{6-chloro-2-[(1-cyclopropyl-5-methyl-1H-pyrazol-4-yl)amino]quinazolin-7-yl}-8-methyl-3-azabicyclo[3.2.1] octan-8-ol], for which the IC50 is 0.486 nM.

For the compound `CC1(N2CCN(c3cc4nc(Nc5cnn(C6CC6(F)F)c5Cl)ncc4cc3Cl)CC2)CCOC1` (single isomer, unassigned) [Ex-3.60, (R or S) 6-chloro-N-(5-chloro-1-((S) or (R) 2,2-difluorocyclopropyl)-1H-pyrazol-4-yl)-7-(4-(3-methyltetra-hydrofuran-3-yl)piperazin-1-yl) quinazolin-2-amine], the IC50 was 0.2 nM.

For `CO[C@H]1C[C@@H](n2ncc(Nc3ncc4cc(Cl)c(N5CCC(C)(O)CC5)cc4n3)c2C)C1` [Ex-6.14, 1-(6-chloro-2-{[1-(cis-3-methoxycyclobutyl)-5-methyl-1H-pyrazol-4-yl]amino}quinazolin-7-yl)-4-methylpiperidin-4-ol], the IC50 was 1.65 nM.

Consider `CC(C)(O)Cn1cc(Nc2ncc3cc(Cl)c(N4CCC(C)(O)CC4)cc3n2)cn1` [Ex-3.12, 1-(6-chloro-2-{[1-(2-hydroxy-2-methylpropyl)-1H-pyrazol-4-yl]amino}quinazolin-7-yl)-4-methyl-piperidin-4-ol], for which the IC50 is 0.221 nM.
